{"source": "patent US20100087534A1", "about": "“Use of a Photosensitizing Agent in the Treatment or Prevention of an Inflammation-Associated Disorder in the Gastrointestinal Tract of a Mammal” (priority 2005, published 2010)", "key": {"iNOS": {"test_system": "iNOS", "assay": "Expression index of iNOS mRNA in illuminated colon, quantitative real-time PCR", "format": "in vivo, BALB/c mice", "details": "high dose PDT: 50 J/cm^2, 60 mg δ-ALA; 74 h; unmanipulated mice index=1", "from_the_text": "The third portion was used for measuring the expression of the molecules involved in immune and inflammatory phenomenons in the colonic mucosa (cytokines, chemokines). For RNA extraction this portion was conserved in RNA-later solution (Ambion Inc. Austin, USA) until processing. RNA was extracted from the tissues using a Rneasy Mini kit (Qiagen, Hombrechtikon, Switzerland). RNA samples were submitted to a second or third DNAse treatment in order to get rid of all traces of genomic DNA. Quality of the RNA samples was tested on agarose gels and absence of genomic DNA was tested by PCR using primers specific for a house keeping gene, glyceraldehydes-3-phosphate-dehydrogenase (GAPDH). […] Quantification of reverse transcripted messenger RNA for GAPDH, the inducible nitric oxide synthetase (iNOS), interferon-gamma (IFN-γ), interleukin-1 receptor antagonist (IL1-Ra), tumor necrosis factor alpha (TNF-α), interleukin 6 (IL-6), tumor growth factor beta (TGF-13) and interleukin10 (IL-10) was performed by quantitative real-time PCR in a BioRad Real-time PCR iCycler using specific pairs of primers and the green fluorescence dye SYBR—Green®. GAPDH was used to normalize quantifications within each individual sample (normalization of the number of mRNA copies for the gene of interest/1 million mRNA copies of the GAPDH gene of the investigated mouse). […]"}, "IFN-γ": {"test_system": "IFN-γ", "assay": "Expression index of IFN-γ mRNA in illuminated colon, quantitative real-time PCR", "format": "in vivo, BALB/c mice", "from_the_text": "(§1) The third portion was used for measuring the expression of the molecules involved in immune and inflammatory phenomenons in the colonic mucosa (cytokines, chemokines). For RNA extraction this portion was conserved in RNA-later solution (Ambion Inc. Austin, USA) until processing. RNA was extracted from the tissues using a Rneasy Mini kit (Qiagen, Hombrechtikon, Switzerland). RNA samples were submitted to a second or third DNAse treatment in order to get rid of all traces of genomic DNA. Quality of the RNA samples was tested on agarose gels and absence of genomic DNA was tested by PCR using primers specific for a house keeping gene, glyceraldehydes-3-phosphate-dehydrogenase (GAPDH). RNA preparations were then submitted to reverse transcription using the ThermoScript™ RT-PCR system (Invitrogen, Basel, Switzerland) using an Oligo-dT as primer. Quantification of reverse transcripted messenger RNA for GAPDH, the inducible nitric oxide synthetase (iNOS), interferon-gamma (IFN-γ), interleukin-1 receptor antagonist (IL1-Ra), tumor necrosis factor alpha (TNF-α), interleukin 6 (IL-6), tumor growth factor beta (TGF-13) and interleukin10 (IL-10) was performed by quantitative real-time PCR in a BioRad Real-time PCR iCycler using specific pairs of primers and the green fluorescence dye SYBR—Green®. GAPDH was used to normalize quantifications within each individual sample (normalization of the number of mRNA copies for the gene of interest/1 million mRNA copies of the GAPDH gene of the investigated mouse). Expression of each gene of interest was finally calculated as an expression index (normalized number of mRNA copies of each manipulated mice/normalized number of mRNA copies of the unmanipulated mice) and the results are given as mean values of the expression index (unmanipulated mean mice index=1). Furthermore one kidney and a part of the liver were collected for pathological analysis to exclude hepato- or nephrotoxicity."}, "TNF-α": {"test_system": "TNF-α", "assay": "Expression index of TNF-α mRNA in illuminated colon, quantitative real-time PCR", "format": "in vivo, BALB/c mice", "from_the_text": "as §1"}, "IL-1Ra": {"test_system": "IL-1Ra", "assay": "Expression index of IL-1Ra mRNA in illuminated colon, quantitative real-time PCR", "format": "in vivo, BALB/c mice", "from_the_text": "as §1"}, "[1]": {"test_system": "SCID mice with TH1-mediated Crohn-like colitis after transfer of CD4+CD45RBhigh T-cells", "assay": "Endoscopic index of colitis severity (EICS) after low dose PDT in transfer colitis (Example 2)", "format": "in vivo", "from_the_text": "Since in example 1 only 55% of the mice developed colitis, Applicants have injected 4×10^5 cells CD4+CD45RB^high intravenously into 9.5 weeks old SCID mice in the following second set of SCID mice.\n(§2) Evolution of colitis in SCID mice was monitored every week by colonoscopic investigation after induction. Mice with moderately inflamed colons [endoscopic index of colitis severity (EICS) index 4-8] or marked inflamed colons (EICS 9-13) were randomly assigned to either a <<low dose>> PDT group or no treatment group (disease control group). Unmanipulated age-matched SCID mice served as negative controls.\n(§3) PDT was performed with a photosensitizing agent (δ-ALA) dose of 15 mg/kg, administered 3 hours before the illumination with the energy dose of 10 J/cm^2 per gastrointestinal tract tissue.\n(§4) The illumination time was 100 s, the wavelength 635 nm.\nAfter completing the experiments with 15 mg/kg δ-ALA and 10 J/cm^2, the Applicants evaluated whether an energy illumination energy of 20 or 2 J/cm^2 would provide an equivalent or better effect on colitis. Furthermore, the Applicants sought to determine whether PDT treatment could be repeated at short term and whether this re-treatment would have a beneficial effect on colitis too. To this end, the Applicants performed another set of experiment with marked inflamed mice in which half of the PDT treated mice (15 mg/kg S-ALA and 10 J/cm^2) were subjected to a second identical low dose PDT treatment at the time of the re-apparition of colitis symptoms, namely one week after the first PDT treatment.\n(§5) Mice were monitored by colonoscopy at day 3 and weeks 1, 2, 3 and 4 post PDT treatment. In addition to parameters investigated in example 1, CD4 immunostaining and apoptosis detection were performed.\nAll statistical analyses were performed using the Prism version 4.0c software from GraphPad Software (San Diego, Calif.). The unpaired two-tail Mann-Whitney test was usually applied, unless the numbers of mice in test groups were too small to perform this test (<5 mice in both test groups) and the unpaired two-tail t test was thus applied. Significance limit was set at a 2-tailed P value≦0.05."}, "[2]": {"test_system": "SCID mice with TH1-mediated Crohn-like colitis after transfer of CD4+CD45RBhigh T-cells", "assay": "Histological analysis of colon after low dose PDT in transfer colitis (Example 2)", "format": "in vivo", "protocol": "as §2, §3, §4, §5"}, "[3]": {"test_system": "CD4+ cells in the colonic mucosa", "assay": "Anti-CD4 immunostaining of treated colonic mucosa", "format": "in vivo, SCID mice", "details": "low dose PDT, 3 days after PDT, compared to DC mice", "protocol": "as §3, §5\nFor anti-CD4 immunostaining, frozen sections were extensively dried, fixed with 100% acetone at 4° C. and rehydrated in PBS. Sections were then blocked for 20 minutes with a PBS solution containing 0.1% BSA (Sigma-Aldrich Inc., St-Louis, USA) and 0.5% NMS. CD4 detection was performed by incubation of the sections for 1 hour with a cell culture supernatant originating from an hybridoma secreting rat anti-mouse CD4 (clone H129.19). After washing with PBS, an Alexa Fluor 488-conjugated goat anti-rat IgG at a final concentration of 5 ng/ml in PBS 0.1% BSA, 1% NMS was used as secondary antibody and incubated for 45 minutes before two last PBS washings. All incubations were done at room temperature unless specified otherwise."}, "[4]": {"details": "high dose PDT: 50 J/cm^2, 60 mg δ-ALA, 74 h, unmanipulated mice index=1"}, "[5]": {"details": "low dose PDT 15 mg/kg δ-ALA, 10 J/cm2"}, "[6]": {"details": "low dose PDT 5J/cm2, 15 mg/kg δ-ALA"}}}
{"smiles": "NCC(=O)CCC(=O)O", "note": "[δ-ALA, 5-aminolevulinic acid]", "values": [{"measurement": "expression index iNOS", "setting": "iNOS", "value": "27.78±10.47"}, {"measurement": "expression index IFN-γ", "setting": "IFN-γ; [4]", "value": "5.36±1.67"}, {"measurement": "expression index IFN-γ", "setting": "IFN-γ; [5]", "value": "0.93±0.09"}, {"measurement": "expression index IFN-γ", "setting": "IFN-γ; [6]", "value": "1.92±0.50"}, {"measurement": "expression index TNF-α", "setting": "TNF-α; [4]", "value": "5.19±0.93"}, {"measurement": "expression index TNF α", "setting": "TNF-α; [5]", "value": "1.16±0.21"}, {"measurement": "expression index TNF α", "setting": "TNF-α; [6]", "value": "4.49±2.86"}, {"measurement": "expression index IL-1Ra", "setting": "IL-1Ra; [4]", "value": "4.54±1.21"}, {"measurement": "expression index IL-1Ra", "setting": "IL-1Ra; [5]", "value": "0.94±0.08"}, {"measurement": "expression index IL-1Ra", "setting": "IL-1Ra; [6]", "value": "1.14±0.11"}, {"measurement": "EICS", "setting": "[1]; marked inflamed mice (mean EICS 10.4±0.2 before), 15 mg/kg δ-ALA, 10 J/cm^2, 3 days after PDT, disease control 10.7±0.6, P<0.0001", "value": "7.3±0.3"}, {"measurement": "EICS", "setting": "[1]; marked inflamed mice, 15 mg/kg δ-ALA, 2 J/cm^2, 3 days after PDT, disease control 10.7±0.6, P=0.0271", "value": "8.4±0.5"}, {"measurement": "EICS versus disease control group", "setting": "[1]; marked inflamed mice, 15 mg/kg δ-ALA, 10 J/cm^2, up to 4 weeks after PDT", "value": "remained significantly lower than the one of the disease control group mice"}, {"measurement": "effect on colitis (EICS) versus disease control group", "setting": "[1]; marked inflamed mice, 15 mg/kg δ-ALA, 20 J/cm^2, any time point", "value": "did not induce any significant beneficial effect"}, {"measurement": "EICS", "setting": "[1]; marked inflamed mice, one single PDT treatment, time point 1 week after second PDT of comparison group", "value": "9.8±0.5"}, {"measurement": "EICS", "setting": "[1]; marked inflamed mice, one single PDT treatment, time point 2 weeks after second PDT of comparison group", "value": "9.8±0.6"}, {"measurement": "EICS", "setting": "[1]; marked inflamed mice, two PDT treatments (15 mg/kg, 10 J/cm^2) one week apart, 1 week after second PDT", "value": "7.3±0.9"}, {"measurement": "EICS", "setting": "[1]; marked inflamed mice, two PDT treatments one week apart, 2 weeks after second PDT", "value": "7.33±0.3"}, {"measurement": "EICS versus disease control group", "setting": "[1]; moderately inflamed mice, since week 2 post PDT", "value": "appeared no more significantly different from the one of the disease control group"}, {"measurement": "histology of illuminated portion of colon", "setting": "[2]; PDT-treated mice, illuminated portion", "value": "a normal mucosa with low cellular infiltration"}, {"measurement": "histological score of inflammation", "setting": "[2]; marked inflamed mice, 3 days after PDT, DC mice 7.7±0.6, P=0.0250", "value": "4.6±0.8"}, {"measurement": "number of CD4+ cells in the treated colonic mucosa", "setting": "[3]", "value": "obvious diminution in the number of CD4^+ cells"}]}
